The values that follow come from the supplement of paper PMC10307832.

Common to all, as to experiment: relative viability (nuclei count vs DMSO), 5 days (fraction); higher = more cells survive
Compound in test [1]: CC(C)C[C@H](NC(=O)[C@H](Cc1ccccc1)NC(=O)c1cnccn1)B(O)O [Bortezomib] + CS(=O)(=O)CCNCc1ccc(-c2ccc3ncnc(Nc4ccc(OCc5cccc(F)c5)c(Cl)c4)c3c2)o1 [Lapatinib] (partner 2 µM)
Put shortly:
(§1)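 For relative viability, nuclei counts in treated wells were divided by those in vehicle wells. Lung cancer cell lines had been pin-tool dosed in 1536-well plates the day after seeding and cultured for 5 days, then fixed and stained in one step (final 0.05% Triton X-100, 1% formaldehyde, 1 ug/ml Hoechst) and imaged at 4×. Doses were one drug alone or a fixed anchor-drug dose plus five library-drug doses (not always all listed) in √10 steps, and values are duplicate-plate medians.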

Compound in test [2]: CC1=CC(=NN1)NC2=CC(=NC(=N2)/C=C/C3=CC=CC=C3)N4CCN(CC4)C + Cc1nc(Nc2ncc(C(=O)Nc3c(C)cccc3Cl)s2)cc(N2CCN(CCO)CC2)n1 [Dasatinib] (partner 0.075 µM)
Put shortly:
as §1

Compound in test [3]: CC1=CC(=NN1)NC2=CC(=NC(=N2)/C=C/C3=CC=CC=C3)N4CCN(CC4)C + O=C(c1cc(Cc2n[nH]c(=O)c3ccccc23)ccc1F)N1CCN(C(=O)C2CC2)CC1 [Olaparib] (partner 8 µM)
In short, it runs like this: as §1

Compound in test [4]: COC1=CC(c2cc3ccccc3[nH]2)=N/C1=C\c1[nH]c(C)cc1C [Obatoclax] + CS(=O)(=O)CCNCc1ccc(-c2ccc3ncnc(Nc4ccc(OCc5cccc(F)c5)c(Cl)c4)c3c2)o1 [Lapatinib] (partner 2 µM)
In short, it runs like this: as §1

On to NCI-H650, for which the relative viability in test [1] (first compound 0.000632 µM) is 0.596; in test [1] (first compound 0.002 µM), 1.02; in test [1] (first compound 0.006325 µM), 0.382; in test [1] (first compound 0.02 µM), 0.175; in test [2] (first compound 0.253 µM), 0.507; in test [2] (first compound 0.8 µM) it was 0.517. Moreover, the relative viability came out at 0.352 in test [2] (first compound 2.53 µM); 0.195 in test [2] (first compound 8 µM); 0.376 in test [3] (first compound 0.08 µM); 0.431 in test [3] (first compound 0.253 µM); 0.416 in test [3] (first compound 0.8 µM); 0.344 in test [3] (first compound 2.53 µM). The relative viability stood at 0.136 in test [3] (first compound 8 µM); 1.04 in test [4] (first compound 0.01 µM); 0.811 in test [4] (first compound 0.03162 µM); 0.438 in test [4] (first compound 0.1 µM); 0.511 in test [4] (first compound 0.3162 µM); 0.457 in test [4] (first compound 1 µM).
